Drawing on ChEMBL document CHEMBL4152226, “Novel Mannich bases of α- and γ-mangostins: Synthesis and evaluation of antioxidant and membrane-protective activity” (Eur J Med Chem, 2018), this text covers Activity, inhibition and hemolysis for 16 compounds.

Broadly, the inhibition is how much of the control response was suppressed.

Activity calls are given as the source filed them. No cut-off for these calls is given here.

Data set [1] can be described thus: Antioxidant activity assessed as DPPH radical scavenging activity at 10 to 100 uM incubated in dark for 30 mins. The class given is functional.
Data set [2] has as its system Erythrocyte. In words: Protection against H2O2-induced oxidative stress in mouse RBC assessed as inhibition of hemolysis at 10 uM pretreated for 30 mins followed by H2O2 addition and measured after 5 hrs by malondialdehyde indicator based assay relative to control. The class given is functional.
Data set [3] concerns Erythrocyte. Kind of data set: Protection against H2O2-induced oxidative stress in mouse RBC assessed as inhibition of hemolysis at 1 uM pretreated for 30 mins followed by H2O2 addition and measured after 5 hrs by malondialdehyde indicator based assay relative to control. Format: functional.
Data set [4] relates to Erythrocyte. Kind of data set: Antioxidant activity against H2O2-induced oxidative stress in mouse RBC assessed as inhibition of LPO accumulation at 10 uM pretreated for 30 mins followed by H2O2 addition and measured after 4 hrs by TBARS assay relative to control. Format: functional.
In data set [5] the test system is Erythrocyte. Kind of data set: Antioxidant activity against H2O2-induced oxidative stress in mouse RBC assessed as inhibition of LPO accumulation at 1 uM pretreated for 30 mins followed by H2O2 addition and measured after 4 hrs by TBARS assay relative to control. Format: functional.
For data set [6], the system named is Erythrocyte. In words: Hemolytic activity against mouse RBC at 30 uM measured after 5 hrs by malondialdehyde indicator based assay. Format: ADME, cell-based.
Data set [7] in a line: Metal chelating activity assessed as compound-Fe2+ complex formation at 10 uM after 10 mins by FerrozineTM iron reagent based assay.
Data set [8] deals with Erythrocyte. In words: Protection against H2O2-induced oxidative stress in mouse RBC assessed as inhibition of hemolysis at 0.05 uM pretreated for 30 mins followed by H2O2 addition and measured after 5 hrs by malondialdehyde indicator based assay relative to control. The class given is functional.
Data set [9] concerns Erythrocyte. Kind of data set: Antioxidant activity against H2O2-induced oxidative stress in mouse RBC assessed as inhibition of LPO accumulation at 0.05 uM pretreated for 30 mins followed by H2O2 addition and measured after 4 hrs by TBARS assay relative to control. Format: functional.
Data set [10] is described as follows: Antioxidant activity assessed as DPPH radical scavenging activity at 100 uM incubated in dark for 30 mins relative to control. The class given is functional. On the technique in general: Loss of DPPH colour is used to gauge radical scavenging.
Data set [11] can be described thus: Hemolytic activity against mouse RBC assessed as hemolysis measured after 5 hrs by malondialdehyde indicator based assay relative to control. Format: ADME, cell-based, Erythrocyte. Conditions: mouse red blood cells (erythrocytes), read-out: Activity.

As to `CCCCNCc1c(O)c(CC=C(C)C)c(O)c2c(=O)c3c(CC=C(C)C)c(OC)c(O)cc3oc12`, in data set [1], the result was Active. Moreover, the figures for the inhibition at 10 µM in the data set on Erythrocyte [2] and in the data set on Erythrocyte [4] were 31.9% and 70.5%, respectively. In addition, the inhibition at 1 µM with Erythrocyte [3] was found to be 46.4%; with Erythrocyte [5], 60.5%. In the data set on Erythrocyte [6], the Activity entry was “Non-Toxic”.

Consider `CC(C)=CCc1c(O)c(CN2CCOCC2)c2oc3c(CN4CCOCC4)c(O)c(O)c(CC=C(C)C)c3c(=O)c2c1O`, for which the outcome in data set [1] and in data set [7] was Active. In addition, in the data set on Erythrocyte [3], the inhibition at 1 µM came out at 6.9%. In addition, the inhibition at 10 µM in the data set with Erythrocyte [4] is 68.8%. Besides, the values for the inhibition at 0.05 µM in the data set on Erythrocyte [8] and in the data set with Erythrocyte [9] were 79.6% and 78.5%, respectively. Moreover, the Activity entry in the data set on Erythrocyte [6] is listed as “Non-Toxic”.

`COc1c(O)cc2oc3c(CN4CCCCCC4)c(O)c(CC=C(C)C)c(O)c3c(=O)c2c1CC=C(C)C`: the result in data set [1] and in data set [7] was Active. In addition, the inhibition at 10 µM with Erythrocyte [2] was found to be 10.8%; in the data set on Erythrocyte [4] it was 48.9%. In addition, the results for the inhibition at 1 µM with Erythrocyte [3] and with Erythrocyte [5] were 27.6% and 51.2%, respectively. Besides, the Activity entry with Erythrocyte [6] was “Non-Toxic”.

Take `CCCCNCc1c(O)c(CC=C(C)C)c(O)c2c(=O)c3c(CC=C(C)C)c(OC)c(O)c(CN(C)C)c3oc12`: the outcome in data set [1] was Active. The inhibition at 10 µM in the data set on Erythrocyte [2] was found to be 50%; in the data set on Erythrocyte [4], 61.5%. The figures for the inhibition at 1 µM in the data set with Erythrocyte [3] and in the data set with Erythrocyte [5] were 36.8% and 53.5%, respectively. Further, the Activity result with Erythrocyte [6] was “Non-Toxic”.

`COc1c(O)cc2oc3c(CN4CCOCC4)c(O)c(CC=C(C)C)c(O)c3c(=O)c2c1CC=C(C)C`: in data set [10], the Activity was 13.1 to 16%.

For `CC(C)=CCc1c(O)c(CN2CCCCCC2)c2oc3c(CN4CCCCCC4)c(O)c(O)c(CC=C(C)C)c3c(=O)c2c1O`, the outcome in data set [1] and in [7] was Active. The inhibition at 1 µM in the data set with Erythrocyte [3] amounted to 9%. Also, the inhibition at 10 µM with Erythrocyte [4] was 71.5%. Also, the inhibition at 0.05 µM in the data set on Erythrocyte [8] amounted to 74.3%; in the data set with Erythrocyte [9], 69%. Further, the Activity result in the data set with Erythrocyte [6] is “Non-Toxic”.

In the case of `COc1c(O)c(CN(C)C)c2oc3c(CN(C)C)c(O)c(CC=C(C)C)c(O)c3c(=O)c2c1CC=C(C)C`, the result in [1] was Active. For the same compound, the inhibition at 10 µM was determined as 66.3% with Erythrocyte [2] and 58.2% with Erythrocyte [4]. Further, the inhibition at 1 µM came out at 41% with Erythrocyte [3] and 56.1% in the data set on Erythrocyte [5]. Further, the Activity entry in the data set on Erythrocyte [6] is given as “Toxic”.

With `COc1c(O)c(CN2CCCCCC2)c2oc3c(CN4CCOCC4)c(O)c(CC=C(C)C)c(O)c3c(=O)c2c1CC=C(C)C`, the outcome in data set [1] was Active. In addition, the inhibition at 10 µM is 17.7% in the data set on Erythrocyte [2] and 33.6% in the data set with Erythrocyte [4]. In addition, the inhibition at 1 µM in the data set with Erythrocyte [3] worked out at 37.5%; with Erythrocyte [5], 56.1%. The Activity result with Erythrocyte [6] is “Non-Toxic”.

As to `COc1c(O)cc2oc3c(CN(C)C)c(O)c(CC=C(C)C)c(O)c3c(=O)c2c1CC=C(C)C`, the Activity in [10] lay in the range of 13.1 to 16%. The hemolysis at 5 h in data set [11] is 63.1%.

Turning to `COc1c(O)cc2oc3c(CN4CCCC4)c(O)c(CC=C(C)C)c(O)c3c(=O)c2c1CC=C(C)C`, the result in [1] and in [7] was Active. The results for the inhibition at 10 µM in the data set on Erythrocyte [2] and in the data set on Erythrocyte [4] were 17.5% and 68.2%, respectively. Further, the inhibition at 1 µM in the data set with Erythrocyte [3] was determined as 29.2%; with Erythrocyte [5], 56.4%. In addition, the Activity entry in the data set on Erythrocyte [6] is on record as “Non-Toxic”.

Turning to `CC(C)=CCc1c(O)cc2oc3cc(O)c(O)c(CC=C(C)C)c3c(=O)c2c1O`, in data set [1], the outcome was Active. Also, the inhibition at 1 µM in the data set on Erythrocyte [3] amounted to 15.1%. In the data set with Erythrocyte [4], the inhibition at 10 µM is 68.1%. In addition, the inhibition at 0.05 µM was found to be 85.9% in the data set on Erythrocyte [8] and 72.8% with Erythrocyte [9]. In the data set on Erythrocyte [6], the Activity entry is on record as “Non-Toxic”.

Consider `COc1c(O)c(CN2CCOCC2)c2oc3c(CN4CCOCC4)c(O)c(CC=C(C)C)c(O)c3c(=O)c2c1CC=C(C)C`, for which the result in [1] was Active. In addition, the inhibition at 10 µM was found to be 22% in the data set on Erythrocyte [2] and 57.4% in the data set with Erythrocyte [4]. In addition, the inhibition at 1 µM in the data set on Erythrocyte [3] came out at 75.6%; in the data set with Erythrocyte [5], 76.1%. Moreover, the Activity result with Erythrocyte [6] is on record as “Non-Toxic”.

Turning to `CC(C)=CCc1c(O)c(CN(C)C)c2oc3c(CN(C)C)c(O)c(O)c(CC=C(C)C)c3c(=O)c2c1O`, the outcome in [1] and in data set [7] was Active. In addition, in the data set on Erythrocyte [3], the inhibition at 1 µM amounted to 15.3%. The inhibition at 10 µM with Erythrocyte [4] was 75.7%. The results for the inhibition at 0.05 µM in the data set on Erythrocyte [8] and with Erythrocyte [9] were 78% and 67.7%, respectively. Besides, in the data set with Erythrocyte [6], the Activity entry is “Non-Toxic”.

For `COc1c(O)cc2oc3c(CN4CCCCC4)c(O)c(CC=C(C)C)c(O)c3c(=O)c2c1CC=C(C)C`, the Activity in [10] was 13.1 to 16%.

Take `COc1c(O)c(CN2CCCCCC2)c2oc3c(CN4CCCCCC4)c(O)c(CC=C(C)C)c(O)c3c(=O)c2c1CC=C(C)C`: the result in [1] was Active. Also, the inhibition at 10 µM with Erythrocyte [2] was 19%; in the data set on Erythrocyte [4], 54.1%. The inhibition at 1 µM with Erythrocyte [3] was found to be 35%; in the data set with Erythrocyte [5], 34.8%. Besides, in the data set with Erythrocyte [6], the Activity entry is recorded as “Non-Toxic”.

Take `COc1c(O)cc2oc3cc(O)c(CC=C(C)C)c(O)c3c(=O)c2c1CC=C(C)C` [MANGOSTIN]: in data set [1], the result was Active. The inhibition at 10 µM with Erythrocyte [2] fell in the range of 44.4 to 46.3%; in the data set on Erythrocyte [4] it was 59.8 to 67%. The results for the inhibition at 1 µM with Erythrocyte [3] and in the data set on Erythrocyte [5] were 60.2 to 60.9% and 54.2 to 66.9%, respectively. Moreover, in the data set with Erythrocyte [6], the Activity result was “Non-Toxic”.
